test system: patient's gastric cancer tissue; experiment: Ex vivo imaging of extracted cancer tissue (IVIS spectrum, ROI values); type: in vivo, mouse; design: unit not given here; conditions: Irradiated population (10 Gy)
Experimental: (§1) Considering overcoming limitations that existing animal models transplanted with cultured cancer cells had, an ideal animal model of cancer similar to actual patient's cancer microenvironments is prepared. Then, to establish an animal model that can confirm influence of an irradiation-dependent cancer tissue, first, a mouse model transplanted with a cancer tissue that was extracted from an actual patient having gastric cancer was established. Regarding the establishment of such an animal model, the cancer tissue extracted from a patient was cultured in an NOD/SCID mouse. Once the cancer tissue was found in the NOD/SCID mouse, subculturing was carried out by using a Balb/c nude mouse, beginning from the next subculturing. In detail, after an NOD/SCID mouse was anesthetized via intraperitoneal injection of anesthetics, the cancer tissue was cut into pieces each having a size of 3×3 mm. Next, each of both flanks of the NOD/SCID mouse was transplanted with a piece of the cut cancer tissues, treated with a mixed solution of 100 μl of 100 IU/ml penicillin, 100 μg/ml streptomycin, 100 μg/ml gentamicin, and 2.5 μg/ml amphotericin B antibiotics, and then, sutured. The NOD/SCID mouse was recovered on a heating pad (for about 2 hours). Afterwards, the formation and growth of tumors were observed every week. When the cancer tissues grew to a size of 400-500 mm^3, the cancer tissues were separated and cut into pieces each having a size of 3×3 mm for subculturing. Next, for next subculturing, a nude mouse was anesthetized via intraperitoneal injection of anesthetics, and a piece of the cut cancer tissues was transplanted subcutaneously on the right thigh of the nude mouse. A transplantation site was changed from the flank to the both thighs so that irradiation can be locally done without affecting other organs during irradiation. That is, a mouse model in which a cancer tissue that underwent subculturing and was re-transplanted up to four times was formed was established. […] After having recovery time for no longer than 24 hours, in vivo peptide screening was performed. Here, as a control group in an irradiated population, a mouse model that was not irradiated among the same mouse models was used to screen a peptide.
(§2) In particular, 1 μg/μl of N-hydroxysuccinimide esters of Cy5.5 (Amersham) was added to 1 mL of bicarbonate buffer (pH 8.3) having the phage concentration of 10^11 plaque forming units (pfu), and then, in a condition where a dark environment was maintained, […] a phage-surface protein was linked to the Cy5.5 fluorescent probe at room temperature for 3 hours. That is, loop peptide-expressing phages to which the Cy5.5 fluorescent probe was linked were each obtained by precipitation with 170 μl of 20% (w/v) PEG 8000/2.5 M NaCl solution and purification. To determine a proportion of the Cy5.5 fluorescent probe linked to each of the finally obtained phage samples, an IVIS spectrum imaging system (Xenogen) was used for measurement, and region of interest (ROI) values were determined using the software program of a corresponding device. Accordingly, it was confirmed that the Cy5.5 fluorescent probe was linked to each of the phage samples at almost the same linking proportion.
(§3) After each of the prepared phages expressing the loop peptide was injected into the ratio-sensitive xenograft mouse model of Example 1 and the control group through the vein tail of the mouse, images were measured for 2 days immediately after the injection, thereby confirming images showing in vivo circulation of the peptide and the targeting of the peptide only in the cancer tissue while the targeting to other organs and tissues gradually disappeared. […] In addition, to verify which part of the cancer tissue was targeted by each of the loop peptide-expressing phages via ex vivo imaging, only the cancer tissue was separated and extracted, and the whole cancer tissue itself and the respective cancer tissue were subjected to fragmentation into several pieces. […]

Substance | ex vivo ROI
Cy5.5 [reference compound] | 1.00
NRGDRIL [Peptide P3, 7-amino-acid loop peptide from irradiated population; tested as Cy5.5-labeled M13 phage expressing it] | 77.85
RYVGTLF [Peptide P2, 7-amino-acid loop peptide from irradiated population; tested as Cy5.5-labeled M13 phage expressing it] | 38.83
TVRTSAD [Peptide P1, 7-amino-acid loop peptide from irradiated population; tested as Cy5.5-labeled M13 phage expressing it] | 70.66

same assay, conditions: Non-irradiated population as control

Substance | ex vivo ROI
Cy5.5 [reference compound] | 1.00
DVWHSAY [Peptide W3, 7-amino-acid loop peptide from non-irradiated population; tested as Cy5.5-labeled M13 phage expressing it] | 3.54
NWGDRIL [Peptide W1, 7-amino-acid loop peptide from non-irradiated population; tested as Cy5.5-labeled M13 phage expressing it] | 2.08
QRSLPSL [Peptide W2, 7-amino-acid loop peptide from non-irradiated population; tested as Cy5.5-labeled M13 phage expressing it] | 2.68

test system: patient's gastric cancer tissue; experiment: Titering of phages eluted from extracted cancer tissue, relative to tissue weight; type: in vivo, mouse; conditions: Irradiated population (10 Gy)
Experimental: as §1
After each of the prepared phages expressing the loop peptide was injected into the ratio-sensitive xenograft mouse model of Example 1 and the control group through the vein tail of the mouse, images were measured for 2 days immediately after the injection, thereby confirming images showing in vivo circulation of the peptide and the targeting of the peptide only in the cancer tissue while the targeting to other organs and tissues gradually disappeared. […] In addition, to verify which part of the cancer tissue was targeted by each of the loop peptide-expressing phages via ex vivo imaging, only the cancer tissue was separated and extracted, and the whole cancer tissue itself and the respective cancer tissue were subjected to fragmentation into several pieces.
To compare targeting efficiency more accurately based on the results of FIGS. 5 and 6, the pieces of the extracted cancer tissue the pieces of the extracted cancer tissue were collected independently, and phages bound to the cancer tissues were eluted. The concentration of each of the eluted phages was measured according to titering, and due to different size and weight of the extracted cancer tissue, the weight of each cancer tissue was also measured in terms of establishing numerical standardization. In this regard, the amount of the identified phages was calculated relative to the weight of the cancer tissue. In addition, to more accurately quantify each imaging result, the in vivo imaging and the ex vivo imaging were confirmed by measuring ROI values that were determined using the IVIS spectrum (Xenogen) program, and the results thereof are shown in Table 2.

Substance | pfu/mg
NRGDRIL [Peptide P3, 7-amino-acid loop peptide from irradiated population; tested as Cy5.5-labeled M13 phage expressing it] | 18.6 pfu/mg
RYVGTLF [Peptide P2, 7-amino-acid loop peptide from irradiated population; tested as Cy5.5-labeled M13 phage expressing it] | 6.3 pfu/mg
TVRTSAD [Peptide P1, 7-amino-acid loop peptide from irradiated population; tested as Cy5.5-labeled M13 phage expressing it] | 25.3 pfu/mg

same assay, conditions: Non-irradiated population as control

Substance | pfu/mg
DVWHSAY [Peptide W3, 7-amino-acid loop peptide from non-irradiated population; tested as Cy5.5-labeled M13 phage expressing it] | 8.1 pfu/mg
NWGDRIL [Peptide W1, 7-amino-acid loop peptide from non-irradiated population; tested as Cy5.5-labeled M13 phage expressing it] | 11.8 pfu/mg
QRSLPSL [Peptide W2, 7-amino-acid loop peptide from non-irradiated population; tested as Cy5.5-labeled M13 phage expressing it] | 18.2 pfu/mg

test system: patient's gastric cancer tissue; experiment: In vivo imaging of Cy5.5-labeled peptide-expressing phages (IVIS spectrum, ROI values); design: species or system mouse; unit not given here; conditions: Irradiated population (10 Gy); Cy5.5-labeled phage, tail vein injection, 2nd day
Experimental: as §1, §2, §3

Substance | in vivo ROI
Cy5.5 [reference compound] | 1.00
NRGDRIL [Peptide P3, 7-amino-acid loop peptide from irradiated population; tested as Cy5.5-labeled M13 phage expressing it] | 19.83
RYVGTLF [Peptide P2, 7-amino-acid loop peptide from irradiated population; tested as Cy5.5-labeled M13 phage expressing it] | 9.05
TVRTSAD [Peptide P1, 7-amino-acid loop peptide from irradiated population; tested as Cy5.5-labeled M13 phage expressing it] | 16.44

same assay, conditions: Non-irradiated population as control; Cy5.5-labeled phage, tail vein injection, 2nd day

Substance | in vivo ROI
Cy5.5 [reference compound] | 1.00
DVWHSAY [Peptide W3, 7-amino-acid loop peptide from non-irradiated population; tested as Cy5.5-labeled M13 phage expressing it] | 1.90
NWGDRIL [Peptide W1, 7-amino-acid loop peptide from non-irradiated population; tested as Cy5.5-labeled M13 phage expressing it] | 1.86
QRSLPSL [Peptide W2, 7-amino-acid loop peptide from non-irradiated population; tested as Cy5.5-labeled M13 phage expressing it] | 2.19

Reference: patent publication US10627402B2, “Peptides for targeting gastric cancer, and medical use tehreof” (priority 2014, dated 2020)
